Measured values published in patent US9789101B2, “Methods and compositions for treating microbial infection using pyrroloquinone” (HELPERBY THERAPEUTICS LIMITED, priority 2010, dated 2017).
Where a name gives a salt, the structure may show the parent alone.

Tests used:
[1] = system: log phase Staphylococcus aureus; test: Chequerboard analysis of HT00800059 with HT230 or HT281 against log phase Staphylococcus aureus; assay type: cell-based, Staphylococcus aureus (Oxford)
Protocol: (§1) Staphylococcus aureus (Oxford); Gram positive; Reference strain.
(§2) Log phase growth of methicilin sensitive Staphylococcus aureus (MSSA) was carried out as follows: • Bacteria were grown in 10 ml of nutrient broth (No. 2, (Oxoid)) overnight at 37° C. with continuous shaking at 120 rpm. The overnight cultures were diluted 1000× with iso-sensitest broth. The cultures were incubated at 37° C. with shaking for 1-2 hours to reach log CFU 6. Viability of the bacteria was estimated by colony forming unit (CFU) counts. From serial 10-fold dilutions of the experimental cultures, 100 μl samples were added to triplicate plates of nutrient agar plates (Oxoid) or blood agar plates (Oxoid). CFUs were counted after incubation of the plates at 37° C. for 24 hours.
(§3) Bacterial cultures: 10 μl of overnight cultures was added to 10 ml of fresh iso-sensitest broth to make the inoculation to 10^6 CFU/ml. 290 μl of the cell suspension was added to each well of the 96 well plate, which was incubated at 37° C. for 24 hours. 300 μl of iso-sensitest broth without bacterial cells were added to wells of the plate as a no bacterial control.
(§4) MIC determination: The optical density of the bacterial cells was read at 405 nm using a plate reader (Bio TEK). The MIC concentration was determined as the lowest concentration of drug which inhibits the bacterial growth.
HT230 was dissolved in DMSO to the stock concentration of 10 mg/ml.
HT281 was dissolved in DMSO to the stock concentration of 10 mg/ml.
(§5) HT00800059 was dissolved in H2O to the stock solution 30.07 mg/ml.
HT230 or HT281 (10 mg/ml) was firstly diluted to 0.96 mg/ml, then a serial of 2 fold dilution was carried out.
This was followed by the addition of 280 μl of log phase culture at 10^6 CFU/ml to make the final concentrations of each drug as shown.
In the above table, values in bold text are for HT00800059. Values in plain text are for HT230 or HT281. The numbers shown in each well are μg/ml.
Incubation of the compounds with the bacterial suspension was carried out for 24 hours. The kill effects of the drug combination were measured by optical density reading at 405 nm with a plate reader (Bio TEK).
(§6) The fractional inhibitory concentration (FIC) index was carried out as follows: (MIC of drug A, tested in combination)/(MIC of drug A, tested alone)+(MIC of drug B, tested in combination)/(MIC of drug B, tested alone). The interaction was defined as synergistic if the FIC index was <1, additive if the FIC index was =1 and antagonistic if the FIC index was >1.

[2] = system: log phase Staphylococcus aureus; test: Chequerboard analysis of HT00800059 and HT61 against log phase Staphylococcus aureus; assay type: cell-based, Staphylococcus aureus (Oxford)
Protocol: as §1, §2, §3, §4
HT61 was dissolved in DMSO to the stock concentration of 10 mg/ml.
as §5
The drugs were first diluted as follows: • 28.8 μl of HT61 at 10 mg/ml was added into 271.2 μl of H2O followed by diluting 2 fold for 6 times.
Both drugs were mixed as following pattern: 10 μl of HT00800059 from each dilution was added into the wells of a 96 well plate from top to bottom and 10 μl of HT61 from each dilution was added to the same 96 well plate from left to right. After addition of 280 μl log phase cell suspension, the final concentrations of drugs for each well in the 96 well plate are shown in the table below.
Incubation of the compounds with the bacterial suspension was carried out for 24 hours. The kill effect of the drug combination and signal drug MIC was measured by optical density reading at 405 nm with a plate reader (Bio TEK). The MIC concentration was determined as the lowest concentration of drug which inhibits the bacterial growth.
as §6

[3] = system: clinically latent microorganisms; test: Screening for ability to kill clinically latent microorganisms (method of WO2000028074); assay type: cell-based; conditions: observed by the Applicant
From the text: International Patent Application, Publication Number WO2000028074 describes a method of screening compounds to determine their ability to kill clinically latent microorganisms. […] This observation has necessitated the development of novel antimicrobials which may be used to kill clinically latent microorganisms.
By way of example, WO2000028074 describes a suitable method of screening compounds to determine their ability to kill clinically latent microorganisms. A typical method may include the following steps: • (1) growing a bacterial culture to stationery phase; • (2) treating the stationery phase culture with one or more antimicrobial agents at a concentration and or time sufficient to kill growing bacteria, thereby selecting a phenotypically resistant sub-population; • (3) incubating a sample of the phenotypically resistant subpopulation with one or more test compounds or agents; and • (4) assessing any antimicrobial effects against the phenotypically resistant subpopulation.

[4] = Staphylococcus aureus, read-out: alone MIC

Row | Compound | MIC after combination ([1]; HT230/HT00800059 chequerboard) | MIC before combination ([1]; HT230/HT00800059 chequerboard) | MIC after combination ([1]; HT281/HT00800059 chequerboard) | MIC before combination ([1]; HT281/HT00800059 chequerboard) | MIC [1, 4] | HT00800059 MIC in combination ([1]; with HT230 at 2 μg/ml) | HT00800059 MIC in combination ([1]; with HT281 at 4 μg/ml) | MIC ([2]; Staphylococcus aureus) | MIC [2, 4] | MIC ([2]; Staphylococcus aureus, with HT61 4 μg/ml, Plate 1, read-out: MIC of HT00800059 + HT61) | MIC ([2]; drug alone, Plate 2) | HT00800059 MIC in combination ([2]; with HT61 4 μg/ml) | MIC of HT00800059 + HT61 ([2]; with HT61 4 μg/ml, Plate 2) | activity against clinically latent microorganisms [3]
1 | CCCCOc1ccc(C(=O)CCN2CCCCC2)cc1 [HT00800059, dyclonine (1-(4-Butoxyphenyl)-3-(1-piperidinyl)-1-propanone) hydrochloride] | 64 mg/L | 512 mg/L | 128 mg/L | 512 mg/L | 512 mg/L | 64 mg/L | 128 mg/L | 512 mg/L | 512 mg/L | 128 mg/L | 512 mg/L | 128 mg/L | 128 mg/L | –
2 | C/C(=C\C(=O)OCCCCCCCCC(=O)O)C[C@@H]1OC[C@H](C[C@@H]2O[C@H]2[C@@H](C)[C@H](C)O)[C@@H](O)[C@H]1O [Mupirocin] | – | – | – | – | – | – | – | – | – | – | – | – | – | little or no activity
